Legend:
S2 cells = assay: Voltage change of ISFET biosensor (reference unit) with fixed S2 cells or general culture media; format: cell-based, Drosophila; settings: FIG. 9
Description: A cell line expressing Gr5a, which is one of drosophila gustatory receptors, was established with Drosophila Expression System (Invitrogen) using Drosophila Schneider 2 (S2) cells that cannot detect sugar (http://tools.invitrogen.com/content/sfs/manuals/des_man.pdf). A high concentration of a polycrystalline silicon thin film was deposited on a p-type silicon substrate through a low pressure chemical vapor deposition (LPCVD) vacuum equipment, and a source electrode and a drain electrode were formed spaced away from each other using lithographic and dry etching processes. An oxide layer was formed of a silicon dioxide (SiO2) layer, a hafnium oxide (HfO2) layer located on the silicon dioxide layer, and an aluminum oxide (Al2O3) layer located on the hafnium oxide layer, on the silicon layer. Rapid thermal treatment (at 850° C. for 30 seconds) was conducted under N2/O2 gas atmosphere, in order to activate the source electrode, the drain electrode, and the oxide layer, successively. After the rapid thermal treatment, a metal electrode was deposited by e-beam deposition. Thereafter, a wall structure was constructed with polydimethylsiloxane (PDMS), and an electrolyte was put into the wall structure, to prepare an ISFET based biosensor. A pair ISFET structure was developed capable of sensing by distinguishing the experimental group from the control group, as shown in FIG. 8. […]

Gr5a = target: T1, Gr5a (Drosophila melanogaster, UniProt Q9W497); assay: Voltage change of ISFET biosensor (sensing unit) with fixed drosophila cell line expressing Gr5a; format: cell-based; settings: FIG. 9
T1 construct: After cloning Gr5a cDNA into a pAC vector; expressed in transfected cells
T1 sequence (Q9W497 1-444): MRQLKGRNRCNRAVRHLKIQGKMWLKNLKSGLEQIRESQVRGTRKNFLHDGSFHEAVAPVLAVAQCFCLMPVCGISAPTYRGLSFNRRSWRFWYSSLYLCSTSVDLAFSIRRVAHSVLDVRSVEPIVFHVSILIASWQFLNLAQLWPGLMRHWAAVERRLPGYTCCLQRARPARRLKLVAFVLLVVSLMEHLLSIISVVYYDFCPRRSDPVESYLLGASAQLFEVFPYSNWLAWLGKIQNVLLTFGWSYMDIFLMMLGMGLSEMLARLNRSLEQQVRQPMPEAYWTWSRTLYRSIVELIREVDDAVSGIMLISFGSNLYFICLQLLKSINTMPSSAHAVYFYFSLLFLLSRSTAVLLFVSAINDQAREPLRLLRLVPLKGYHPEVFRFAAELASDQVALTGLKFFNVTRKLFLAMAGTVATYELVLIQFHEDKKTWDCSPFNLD
Protocol: A cell line expressing Gr5a, which is one of drosophila gustatory receptors, was established with Drosophila Expression System (Invitrogen) using Drosophila Schneider 2 (S2) cells that cannot detect sugar (http://tools.invitrogen.com/content/sfs/manuals/des_man.pdf). After cloning Gr5a cDNA into a pAC vector, the S2 cell line was co-transfected with 2 μg of the cloned plasmid and 200 ng of pCoHygro which is a selection vector resistant to hygromycin, using polyethylenimine (PEI) in a Schneider medium (Invitrogen) containing no serum. A stable cell line expressing Gr5a was established by culturing in a medium containing hygromycin every 4 days, at least 6 times. A high concentration of a polycrystalline silicon thin film was deposited on a p-type silicon substrate through a low pressure chemical vapor deposition (LPCVD) vacuum equipment, and a source electrode and a drain electrode were formed spaced away from each other using lithographic and dry etching processes. An oxide layer was formed of a silicon dioxide (SiO2) layer, a hafnium oxide (HfO2) layer located on the silicon dioxide layer, and an aluminum oxide (Al2O3) layer located on the hafnium oxide layer, on the silicon layer. Rapid thermal treatment (at 850° C. for 30 seconds) was conducted under N2/O2 gas atmosphere, in order to activate the source electrode, the drain electrode, and the oxide layer, successively. […]

OC[C@H]1O[C@H](O[C@H]2O[C@H](CO)[C@@H](O)[C@H](O)[C@H]2O)[C@H](O)[C@@H](O)[C@@H]1O [trehalose]
change in voltage of the pair ISFET depending on the concentration of trehalose (S2 cells): voltage changes little
change in voltage of the pair ISFET depending on the concentration of trehalose (Gr5a): voltage remarkably increases

Source: patent US20160139152A1, “Biosensor Using Cell That Expresses Chemosensory Receptor That Can Detect Sugar, And Alzheimer's Disease Diagnostic Apparatus Comprising Same” (KYUNGPOOK NATIONAL UNIVERSITY INDUSTRY-ACADEMIC COOPERATION …, priority 2013, published 2016)
